Experimental data reported in ChEMBL document CHEMBL1777772, “Synthesis and evaluation of heteroarylalanine diacids as potent and selective neutral endopeptidase inhibitors” (Bioorg Med Chem Lett, 2011).

Legend:
[1] = target: Angiotensin-converting enzyme (Homo sapiens) (UniProt P12821)
[2] = Clearance in iv dosed rat; type: ADME, organism-based; conditions: in vivo
[3] = Half life in iv dosed rat; type: ADME, organism-based; conditions: in vivo
[4] = Oral bioavailability in rat; type: ADME, organism-based; conditions: in vivo
Neprilysin = Neprilysin (Homo sapiens, UniProt P08473)
Chain of Neprilysin (P08473 whole entry): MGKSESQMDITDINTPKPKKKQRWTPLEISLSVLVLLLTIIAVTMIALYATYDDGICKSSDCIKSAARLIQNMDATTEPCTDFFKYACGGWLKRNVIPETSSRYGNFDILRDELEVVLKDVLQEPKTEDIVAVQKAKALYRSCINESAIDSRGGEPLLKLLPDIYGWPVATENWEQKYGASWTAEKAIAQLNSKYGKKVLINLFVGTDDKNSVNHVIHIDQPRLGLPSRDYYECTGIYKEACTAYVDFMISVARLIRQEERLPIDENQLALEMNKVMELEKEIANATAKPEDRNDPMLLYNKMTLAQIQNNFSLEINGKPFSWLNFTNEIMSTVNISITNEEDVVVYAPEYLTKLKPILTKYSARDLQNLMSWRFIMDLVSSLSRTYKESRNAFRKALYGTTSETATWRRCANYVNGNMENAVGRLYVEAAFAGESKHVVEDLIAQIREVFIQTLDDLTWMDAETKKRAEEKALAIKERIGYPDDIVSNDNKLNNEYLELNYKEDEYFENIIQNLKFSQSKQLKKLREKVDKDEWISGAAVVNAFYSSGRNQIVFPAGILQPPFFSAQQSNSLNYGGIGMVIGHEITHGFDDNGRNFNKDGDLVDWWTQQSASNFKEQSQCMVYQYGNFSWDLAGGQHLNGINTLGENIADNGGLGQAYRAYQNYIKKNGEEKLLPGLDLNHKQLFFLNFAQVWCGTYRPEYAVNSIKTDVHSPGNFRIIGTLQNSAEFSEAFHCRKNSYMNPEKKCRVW
Description: Inhibition of neutral endopeptidase

Chain of Angiotensin-converting enzyme (Homo sapiens) (P12821 whole entry, looked up): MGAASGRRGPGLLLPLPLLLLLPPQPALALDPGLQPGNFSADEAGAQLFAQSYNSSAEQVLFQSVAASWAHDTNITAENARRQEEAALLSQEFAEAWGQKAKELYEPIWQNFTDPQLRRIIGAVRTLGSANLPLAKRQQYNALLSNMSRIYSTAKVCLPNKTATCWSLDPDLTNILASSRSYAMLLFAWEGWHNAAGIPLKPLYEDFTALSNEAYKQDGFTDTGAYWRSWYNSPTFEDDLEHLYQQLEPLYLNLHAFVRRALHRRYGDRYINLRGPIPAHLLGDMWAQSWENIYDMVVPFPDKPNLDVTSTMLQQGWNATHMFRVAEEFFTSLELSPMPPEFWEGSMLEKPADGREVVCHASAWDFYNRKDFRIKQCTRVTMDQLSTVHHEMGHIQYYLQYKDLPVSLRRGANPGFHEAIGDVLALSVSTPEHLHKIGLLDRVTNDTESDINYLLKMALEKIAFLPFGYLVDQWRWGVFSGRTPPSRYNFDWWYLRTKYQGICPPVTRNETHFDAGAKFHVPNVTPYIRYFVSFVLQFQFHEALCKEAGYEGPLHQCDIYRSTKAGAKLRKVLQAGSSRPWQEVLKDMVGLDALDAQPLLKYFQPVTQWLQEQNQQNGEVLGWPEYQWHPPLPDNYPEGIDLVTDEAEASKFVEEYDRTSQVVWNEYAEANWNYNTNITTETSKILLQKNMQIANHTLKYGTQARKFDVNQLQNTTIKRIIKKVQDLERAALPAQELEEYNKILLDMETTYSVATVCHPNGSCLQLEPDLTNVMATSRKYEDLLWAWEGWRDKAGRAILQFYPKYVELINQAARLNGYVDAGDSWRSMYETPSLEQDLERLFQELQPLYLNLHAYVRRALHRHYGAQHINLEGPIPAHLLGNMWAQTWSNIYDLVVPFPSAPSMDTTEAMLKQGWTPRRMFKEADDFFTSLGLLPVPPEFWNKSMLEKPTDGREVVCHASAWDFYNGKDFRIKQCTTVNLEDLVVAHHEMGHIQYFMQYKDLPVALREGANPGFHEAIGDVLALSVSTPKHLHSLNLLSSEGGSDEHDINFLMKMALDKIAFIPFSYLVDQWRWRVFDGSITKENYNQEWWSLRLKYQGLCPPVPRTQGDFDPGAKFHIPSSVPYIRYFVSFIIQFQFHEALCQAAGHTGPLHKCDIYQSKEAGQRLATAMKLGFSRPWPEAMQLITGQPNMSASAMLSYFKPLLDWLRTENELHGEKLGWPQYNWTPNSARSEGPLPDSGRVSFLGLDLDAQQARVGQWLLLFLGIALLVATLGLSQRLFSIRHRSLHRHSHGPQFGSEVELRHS

| IC50 [1] | clearance [2] [mL/min/kg] | half-life [3] [h] | bioavailability [4] [%] | IC50 (Neprilysin) [nM] | Structure (SMILES) |
| --- | --- | --- | --- | --- | --- |
| 210 nM | – | – | – | – | COCC[C@H](NC1(C(=O)N[C@@H](Cc2nc(C)c(-c3ccccc3)o2)C(=O)O)CCCC1)C(=O)O |
| 130 nM | – | – | – | – | COCC[C@H](NC1(C(=O)N[C@@H](Cc2nc(-c3ccccc3)co2)C(=O)O)CCCC1)C(=O)O |
| 82 nM | – | – | – | – | CCC[C@H](NC1(C(=O)N[C@@H](Cc2ncc(-c3ccccc3)o2)C(=O)O)CCCC1)C(=O)O |
| 270 nM | 4.8 | 2.1 | 1.7 | – | COCC[C@H](NC1(C(=O)N[C@@H](Cc2ncc(-c3ccccc3)o2)C(=O)O)CCCC1)C(=O)O |
| 3.4 nM | – | – | – | 0.6 | CS(=O)(=O)N[C@@H](CCCCN)C(=O)NC[C@H](CC1(C(=O)N[C@@H](Cc2ccc(O)cc2)C(=O)O)CCCC1)C(=O)O [SAMPATRILAT] |
| > 3000 nM | – | – | – | 6 | COCC[C@H](NC1(C(=O)N[C@@H](Cc2nnc(-c3ccccc3)o2)C(=O)O)CCCC1)C(=O)O |
| 25 nM | – | – | – | – | CCC[C@H](NC1(C(=O)N[C@@H](Cc2nc(-c3ccccc3)co2)C(=O)O)CCCC1)C(=O)O |
| 58 nM | – | – | – | 1.9 | COCC[C@H](NC1(C(=O)N[C@@H](Cc2nc(-c3ccccc3)no2)C(=O)O)CCCC1)C(=O)O |
| 195 nM | – | – | – | 0.3 | COCC[C@H](NC1(C(=O)N[C@@H](Cc2ncc(-c3ccc(Cl)cc3)o2)C(=O)O)CCCC1)C(=O)O |
| 75 nM | – | – | – | 20 | CCC[C@H](NC1(C(=O)N[C@@H](Cc2nc(CC(C)C)co2)C(=O)O)CCCC1)C(=O)O |
| 130 nM | – | – | – | 22 | CCC[C@H](NC1(C(=O)N[C@@H](Cc2nc(CC)co2)C(=O)O)CCCC1)C(=O)O |
| Not Active | – | – | – | 7.8 | COCCOC[C@H](CC1(C(=O)N[C@H]2CC[C@@H](C(=O)O)CC2)CCCC1)C(=O)O [CANDOXATRILAT] |
| 1.5 nM | – | – | – | 28 | CC(C)CC[C@H](N[C@@H](CCc1ccccc1)C(=O)O)C(=O)N[C@@H](Cc1ccc(-c2ccccc2)cc1)C(=O)O |
